Experimental data published in patent EP4653012A1 (Jiangsu Hengrui Pharmaceuticals Co., Ltd., priority 2023, dated 2024).
pIC50: −log10 of the molar value.

What was measured:
[1] = system: A549 (human non-small cell lung cancer cells); assay: In vitro cytotoxic activity screening (CTG assay); type: cell-based
Description: (§1) In this experiment, the ATP content was determined using CTG to reflect the survival condition of the tumor cells. […] The killing effect of the toxin molecule was then assayed according to this condition.
(§2) According to the purpose of the experiment, two disease models of breast cancer and NSCLC were selected, and three cell strains of SKBR3 tumor cells (HER2+, ATCC, Cat# HTB-30), MDA-MB-468 (HER2-, ATCC, Cat# HTB-132) and A549 (human non-small cell lung cancer cells, ATCC, Cat# CCL-185) were selected for screening.
(§3) The cells were counted, and 4.3 × 10^5, 7.2 × 10^5 and 11.5 × 10^5 cells were each added to a culture solution to give a final volume of 26 mL. 180 µL of cell suspension was added to each well in columns 2 to 11 of a 96-well plate (Corning, Cat# 3903) to give cell densities of 3K, 5K, and 8K per well. Wells in column 12 were each filled with 200 µL of culture solution and the remaining wells were each filled with PBS. The SKBR3 and MDA-MB-468 cells were subjected to the same operations described above. […] 2 mM stock solution (stock solution diluted 10-fold in DMSO) was prepared in column 1 of drug preparation plate 1, and then 10-fold gradient dilution in DMSO was performed through column 10, and the wells in column 11 were filled with DMSO. 95 µL of corresponding culture solution was added into each well from column 2 to column 11 of the drug preparation plate 2, and 5 µL of solution was pipetted from column 2 to column 11 of drug preparation plate 1 to drug preparation plate 2. The solution was mixed well, and 20 µL of solution was pipetted and added into the plated cells. The cells were then cultured for 3 days and 5 days. • 4) CTG assay (Cell Titer-GloTM, luminescent cell viability assay, Promega): the cell plates were taken out on day 3 and day 5 and equilibrated to room temperature. 90 µL of CTG was added into each well, and the mixture was reacted at room temperature for 10 min in the dark. The luminescence value was read using a microplate reader and IC50 was calculated.

MDA-MB-468 (HER2-) = assay: In vitro cytotoxic activity screening (CTG assay); type: cell-based
Description: as §1, §2, §3

[2] = system: SKBR3 tumor cells (HER2+); assay: In vitro cytotoxic activity screening (CTG assay); type: cell-based
Description: as §1, §2, §3

[3] = Pharmacokinetic study in beagles, intravenous administration, plasma by LC/MS/MS; details: 0.5 mg/kg
Description: The pharmacokinetic behavior of the compound of the present disclosure in dogs was studied, and its pharmacokinetic profile was evaluated.
Six male beagles were divided into 2 groups of 3, purchased from Shanghai Medicilon Inc., and subjected to an administration test.
The collected blood samples were each placed in EDTA-K2 anticoagulant blood collection tubes, and the collected whole blood was placed on ice and centrifuged within 1 h to isolate the plasma (centrifugal force: 2200 g, centrifugal time: 10 min, 2-8 °C). Plasma samples were stored in a refrigerator at -80 °C prior to testing.
The content of the test compounds in beagle plasma after the injection was determined: 25 µL of beagle plasma at each time point after the administration was mixed with 50 µL (100 ng/mL) of internal standard solution camptothecin (China National Institutes for Food and Drug Control) and 200 µL of acetonitrile. The mixture was vortexed for 5 min and centrifuged for 10 min (3700 rpm), and 3-4 µL of the supernatant of the plasma sample was taken for LC/MS/MS assay (API4000 triple quadrupole tandem mass spectrometer (No. 2), Applied Biosystems, USA; Shimadzu, LC-30AD ultra high performance liquid chromatography system, Shimadzu, Japan).

| SMILES | Maximum inhibition rate ([1]; A549, CTG) | pIC50 ([1]; Homo sapiens, A549) | pIC50 (MDA-MB-468 (HER2-); Homo sapiens, MDA-MB-468) | Maximum inhibition rate (MDA-MB-468 (HER2-); MDA-MB-468, CTG) | pIC50 ([2]; Homo sapiens, SK-BR-3) | Maximum inhibition rate ([2]; SKBR3, CTG) | Plasma concentration C5min ([3]; beagles, intravenous) | concentration at 5 min ([3]; male, beagle, dog, in vivo, iv) |
| --- | --- | --- | --- | --- | --- | --- | --- | --- |
| C=C1C[C@@H]2CC[C@@]34C[C@H]5O[C@H]6[C@@H](O3)[C@H]3O[C@H](CC[C@@H]3O[C@H]6[C@H]5O4)CC(=O)C[C@@H]3[C@@H](OC)[C@@H](C[C@@H](CN)OC)O[C@H]3C[C@H]3O[C@@H](CC[C@@H]1O2)C[C@@H](C)C3=C [Compound 1] | 81.34% | 9.29 | 9.74 | 88.01% | 9.69 | 96.87% | 82.1 ng/mL |  |
| C=C1C[C@@H]2CC[C@@]34C[C@H]5O[C@H]6[C@@H](O3)[C@H]3O[C@H](CC[C@@H]3O[C@H]6[C@H]5O4)CC(=O)C[C@@H]3[C@@H](OC)[C@@H](C[C@H](O)CN)O[C@H]3C[C@H]3O[C@@H](CC[C@@H]1O2)C[C@@H](C)C3=C [Eribulin, eribulin, reference compound] |  |  |  |  |  |  |  | 217 ng/mL |
